In patent US7595158B2, “Bcl2L12 polypeptide activators and inhibitors” (Dana-Farber Cancer Institute, Inc., priority 2003, dated 2009):

B1: IRF3: IRF3 polypeptide expressed from expression vector; candidate gene of the 19q13.3 amplicon (protein, UniProt Q14653 1-427, looked up)
Interferon regulatory factor 3: MGTPKPRILPWLVSQLDLGQLEGVAWVNKSRTRFRIPWKHGLRQDAQQEDFGIFQAWAEATGAYVPGRDKPDLPTWKRNFRSALNRKEGLRLAEDRSKDPHDPHKIYEFVNSGVGDFSQPDTSPDTNGGGSTSDTQEDILDELLGNMVLAPLPDPGPPSLAVAPEPCPQPLRSPSLDNPTPFPNLGPSENPLKRLLVPGEEWEFEVTAFYRGRQVFQQTISCPEGLRLVGSEVGDRTLPGWPVTLPDPGMSLTDRGVMSYVRHVLSCLGGGLALWRAGQWLWAQRLGHCHTYWAVSEELLPNSGHGPDGEVPKDKEGGVFDLGPFIVDLITFTEGSGRSPRYALWFCVGESWPQDQPWTKRLVMVKVVPTCLRALVEMARVGGASSLENTVDLHISNSHPLSLTSDQYKAYLQDLVEGMDFQGPGES
B2: R-RAS: R-RAS polypeptide over-expressed from expression vector; candidate gene of the 19q13.3 amplicon (protein, UniProt P10301 1-215, looked up)
Ras-related protein R-Ras: MSSGAASGTGRGRPRGGGPGPGDPPPSETHKLVVVGGGGVGKSALTIQFIQSYFVSDYDPTIEDSYTKICSVDGIPARLDILDTAGQEEFGAMREQYMRAGHGFLLVFAINDRQSFNEVGKLFTQILRVKDRDDFPVVLVGNKADLESQRQVPRSEASAFGASHHVAYFEASAKLRLNVDEAFEQLVRAVRKYQEQELPPSPPSAPRKKGGGCPC

What was measured:
LNZ308 cells = test: STS-induced DNA fragmentation (sub-G1, FACS) in LNZ308 cells; format: cell-based, human; conditions: LNZ308, 2.0 μM STS; control siRNA about 30 percent
Method: (§1) LNZ308 and LN443 glioma cell lines transfected with control siRNA, Bcl2L12-targeting siRNA #4, or Bcl2L12-targeting siRNA #5 were treated with 0, 0.2, 0.5, 1.0, or 2.0 μM STS. DNA-fragmentation was assessed by quantifying sub-G1 peaks using FACS analysis. siRNA-mediated knockdown of Bcl2L12 polypeptide sensitized the glioma cell lines to STS-induced apoptosis. […] The maximum percent DNA fragmentation was about 30 percent, 45 percent, and 55 percent in LNZ308 cells transfected with control siRNA, siRNA #4, or siRNA #5, respectively, and treated with 2.0 μM STS (FIG. 10B). […] The maximum percent DNA fragmentation was about 40 percent, 60 percent, and 75 percent in LN443 cells transfected with control siRNA, siRNA #4, or siRNA #5, respectively, and treated with 2.0 μM STS (FIG. 10C).
LNZ308 cells co-transfected with pcDNA3-GFP and either pSHAG-A or pSHAG-B were treated with 0.1 or 0.5 μM of STS for 24 hours, and DNA fragmentation was assessed.

LN443 cells = test: STS-induced DNA fragmentation (sub-G1, FACS) in LN443 cells; format: cell-based, human; conditions: LN443, 2.0 μM STS; control siRNA about 40 percent
Method: as §1

Bcl2L12 polypeptide = test: Endogenous Bcl2L12 polypeptide expression in U87MG cells (Western blot, immunofluorescence); format: cell-based, human; conditions: 48 hours post transfection, anti-L12-1 Western blot
Method: Down-regulation of Bcl2L12 polypeptide expression via RNA interference was assessed in U87MG cells. Briefly, U87MG cells were co-transfected (1:10 ratio) with 0.5 μg of vector encoding GFP and 5 μg of either pSHAG-Control, pSHAG-Bcl2L12-A, pSHAG-Bcl2L12-B, or pSHAG-Bcl2L12-A+-B. Once transfected, the cells expressing GFP were sorted out by FACS analysis. […] The FACS-sorted cells were assessed for Bcl2L12 polypeptide expression. […] The FACS-sorted cells also were seeded in 24-well plates at a density of 1×10^5 cells, grown in 10% FBS-DMEM, and counted every day for three days.
In another experiment, total cellular lysates of U87MG cells transfected with control siRNA, Bcl2L12-targeting siRNA #4, or Bcl2L12-targeting siRNA #5 were harvested 48 hours post transfection and subjected to western blot analysis using the anti-L12-1 antibody (1 μg/mL).
The following experiments were performed to characterize the anti-Bcl2L12 polypeptide antibodies. U87MG cells stably expressing control or Bcl2L12-targeting shRNA (shL12-1) were subjected to deconvolution immunofluorescence microscopy using the anti-L12-2 antiserum. Cells were counterstained with DAPI. […]
The potential anti-oncogenic impact of Bcl2L12 polypeptide knockdown was assessed in the U87MG human glioma model system. […] Bcl2L12 polypeptide expression was analyzed by western blotting using the anti-L12-1 antibody. […]

[1] = tested on: Ink4a-/-/Arf-/- astrocytes; test: Annexin V staining of STS-treated Ink4a/Arf deficient astrocytes (FACS); format: cell-based, mouse; conditions: 100 nM staurosporine one day; control cultures about 17-22 percent
Method: The following experiments were performed to determine whether the Bcl2L12 polypeptide influenced cell survival or apoptosis. Ink4a^−/−/Arf^−/− astrocytes retro-virally infected with vector alone (pBabe) or vector containing Bcl2 nucleic acid, Bcl2L12-V5 nucleic acid, R-RAS nucleic acid, or IRF3 nucleic acid were […] After this one day incubation, the cells were stained with annexin V (Roche). Annexin V-positive cells were determined by FACScan analysis (mean±S.D.; three independent experiments with each being performed in triplicate).
After STS treatment, the cells were analyzed for apoptosis by assessing annexin V binding and DNA fragmentation using a FACS based analysis.

[2] = tested on: Ink4a/Arf deficient embryonic fibroblasts; test: Colony formation of Ink4a/Arf deficient embryonic fibroblasts; format: cell-based; conditions: about 300 cells per 6 well plate; vector only about 13
Method: In addition, Ink4a/Arf deficient embryonic fibroblasts were transfected with vector only or a vector encoding a Bcl2L12 polypeptide or Bcl2 polypeptide. Once the cells were transfected, the number of colonies formed in cultures (about 300 cells per 6 well plate) was determined. Expression of Bcl2L12 polypeptide promoted growth of Ink4a/Arf deficient embryonic fibroblasts. […] In a similar experiment, Ink4a/Arf deficient embryonic fibroblasts were co-transfected with a vector encoding H-RasV12 and either a vector only, vector encoding Bcl2L12 polypeptide, or a vector encoding Bcl2 polypeptide. Once the cells were transfected, the number of foci formed per transfection was determined. Expression of Bcl2L12 polypeptide or Bcl2 polypeptide in combination with H-RasV12 expression promoted growth of Ink4a/Arf deficient embryonic fibroblasts (about 1.5 to 2 fold more foci per transfection for cells expressing Bcl2L12 polypeptide or Bcl2 polypeptide compared to control pBabe cells).

[3] = tested on: Ink4a-/-/Arf-/- astrocytes; test: Growth of transduced Ink4a-/-/Arf-/- astrocytes under normal and low-serum conditions; format: cell-based, mouse; conditions: over-expression, 10% FBS, vs vector only
Description: The Bcl2L12-V5, R-RAS, and IRF3 nucleic acid sequences were cloned into expression vectors. Controls included expression vectors containing EGFR or Bcl2 nucleic acid sequences. The encoded polypeptides were expressed in primary astrocytes and tested for cell growth, transformation, and apoptosis activities. Primary astrocytes deficient for Ink4a/Arf (e.g., Ink4a^−/−/Arf^−/− astrocytes) were used given the prominence of this tumor suppressor lesion in advanced human gliomas. The following was performed to assess growth characteristics under normal growth conditions. Mouse Ink4a^−/−/Arf^−/− astrocytes were retro-virally transduced with pBabe vector alone; Bcl2L12-V5 nucleic acid; R-RAS nucleic acid; IRF3 nucleic acid; EGFR* nucleic acid; or Bcl2 nucleic acid. After retro-viral infection, transduced mouse Ink4a^−/−/Arf^−/− astrocytes were subjected to puromycin (2 μg/mL) selection for four days and plated at a density of 1×10^5 cells/10 cm dish using 10% FBS-DMEM medium. All transduced Ink4a^−/−/Arf^−/− astrocytes were counted each day for five days to determine cell numbers (mean±S.D.; three independent experiments with each being performed in triplicate).
The following was performed to assess growth characteristics under low-serum growth conditions. Retro-virally transduced mouse Ink4a^−/−/Arf^−/− astrocytes (1×10^6 cells/10 cm dish) were allowed to attach onto plates in 10% FBS-DMEM medium for five hours. After five hours, the medium was changed to 0.1% FBS-DMEM, and the cells were allowed to grow for three days. After three days in 0.1% FBS, the cells were counted to determine cell numbers (mean±S.D.; three independent experiments with each being performed in triplicate). The number of Ink4a^−/−/Arf^−/− astrocytes infected with pBabe-vector was set to 1.0.

[4] = tested on: Ink4a-/-/Arf-/- mouse embryo fibroblasts; test: Focus formation in cooperation with activated H-Ras in Ink4a-/-/Arf-/- mouse embryo fibroblasts; format: cell-based; conditions: cotransfected with H-Ras G12V, vs pBabe
Method: The oncogenic potential of these genes was determined directly through their capacity to cooperate with activated H-RAS to effect the malignant transformation of primary Ink4a^−/−/Arf^−/− cells. Briefly, Ink4a^−/−/Arf^−/− mouse embryo fibroblasts (MEFs) were seeded at 8×10^5 cells/10 cm dish and grown in 10% FBS-DMEM for one day and then cotransfected with 1.5 μg of activated H-Ras^G12V and 1.5 μg of either pBabe, Bcl2, Bcl2L12-V5, R-RAS, or IRF3 nucleic acid using Lipopectamine-plus reagent (Invitrogen). One day after cotransfection, each Ink4a^−/−/ARF^−/− MEF was splitted 1:3 ratio and refed with 10% FBS-DMEM every 3-4 day for ten days. After staining cells with crystal violet solution, foci were counted to determine transformation efficiency (mean±S.D.; three independent experiments with each being done in duplicate). The numbers of foci from cells cotransfected with H-Ras^G12V and pBabe vector were set to 100%.
In addition, Ink4a/Arf deficient embryonic fibroblasts were transfected with vector only or a vector encoding a Bcl2L12 polypeptide or Bcl2 polypeptide. Once the cells were transfected, the number of colonies formed in cultures (about 300 cells per 6 well plate) was determined. Expression of Bcl2L12 polypeptide promoted growth of Ink4a/Arf deficient embryonic fibroblasts. […] Once the cells were transfected, the number of foci formed per transfection was determined. […]

Row | Molecule | maximum percent DNA fragmentation (LNZ308 cells) [%] | maximum percent DNA fragmentation (LN443 cells) [%] | Bcl2L12 polypeptide levels (Bcl2L12 polypeptide) | annexin-V positive cells [1] | number of colonies [2] | growth / proliferation under normal growth conditions [3] | RAS-induced focus formation increase [4]
1 | siRNA #4: Bcl2L12-targeting siRNA oligonucleotide 5′-AAGCUGGUCCGCCUGUCCU-3′; SEQ ID NO:6 (chemistry not given here) | ~45 | ~60 | significant reduction |  |  |  | 
2 | Bcl2: Bcl2 polypeptide expressed from control expression vector [reference compound] |  |  |  | 2-3% | about 10 colonies | failed to exhibit a pro-proliferative response | 
3 | B1 |  |  |  | 14-16% |  | failed to exhibit a pro-proliferative response | did not exhibit any cooperative activity
4 | B2 |  |  |  | 10-20% |  | moderate increase in proliferation | did not exhibit any cooperative activity
